How the values were obtained:
[1] = tested on: A549 cells; experiment: Proliferation of A549 nonsmall cell lung cancer cells (overexpress COX-2); format: cell-based, human; conditions: A549 overexpress COX-2
Source text: The antitumor efficacy of specifically formulated fish oil 30 diets was studied in human lung cancer A549 xenograft (over expression of COX-2) and H1299 xenograft (lack of COX-2 expression).
FIG. 17 illustrates the relative effect of WholeMega and two commercial fish oil products to inhibit proliferation of human A549 nonsmall cell lung cancer cells (top figure) and human H1299 nonsmall cell lung cancer cells (bottom figure). A549 cells overexpress COX-2, as many cancer cells are known to do. […] The A549 cells over-express COX-2 which normally results in an over-expression/production of PGE2. When provided with an alternate substrate, however, such as fish oil EPA, the resulting product is PGE3 rather than PGE2. […] Clearly, at least one structural feature unique to the Wholemega composition contributes an additional anti-tumor effect. One possibility is that that other oils in Wholemega (omega-5, omega-7 and omega-9 oils), that are not present in the other two fish oils, contribute to an additional inhibitory effect on the growth of the cancer cells. Another possibility would be the relative fractions of certain oils to one another. Yet another possibility would be the herbal oil component, e.g. SCE rosemary and SCE oregano) contribute an added inhibitory effect on the growth of the cancer cells. […]

[2] = tested on: gram-positive bacteria; conditions: purified cPA (>99%); cited from earlier work
[3] = tested on: Selenomonas artemidis; conditions: only one of 45 compounds surveyed; cited from earlier work
[4] = tested on: beta-cell; conditions: 0.5 mmol/l, medium with 5.5, 11.1 or 33.3 mmol/l glucose, 4 days; cited from earlier work

## CCCCC[C@H](O)/C=C/[C@H]1[C@H](O)CC(=O)[C@@H]1C/C=C\CCCC(=O)O [PGE2]
[1]
  effect on proliferation of A549 cells: slightly stimulates proliferation

## CC/C=C\C[C@H](O)/C=C/[C@H]1[C@H](O)CC(=O)[C@@H]1C/C=C\CCCC(=O)O [PGE3]
[1]
  effect on proliferation of A549 cells: inhibits proliferation

## CCCCCCCCC/C=C\CCCCC(=O)O [cPA, palmitoleic acid (C16:1delta6, cPA)]
[2]
  minimal inhibitory concentration (MIC): 10 to 20 µg/mL

## CCCCC=CCCCCCCCC(=O)O [myristoleic acid, 9-tetradecenoic acid]
[3]
  inhibitory concentration towards S. artemidis: < 100 micrograms/ml

## CCCCCC/C=C\CCCCCCCC(=O)O [palmitoleic acid]
[4]
  beta-cell DNA fragmentation: did not affect

— patent US9795647B2, “Compositions and methods for modulating inflammatory potential” (New Chapter Inc., priority 2009, dated 2017)
